Assay results: patent US8987340B2, “Sublimable sustained release delivery system and method of making same” (Oakwood Laboratories, LLC, priority 2005, dated 2015)

Experiment: In vivo sublimation (disappearance) of pellets from subcutaneous implant sites
Set-up: species or system Sprague-Dawley male rats
Conditions: subcutaneous implant in neck scruff of rats, explanted pellet mass (FIG. 11)
Description: The in-vivo disappearance rates of hexamethylethane and adamantane pellets from subcutaneous implant sites in rats were assessed over a 16-week period. Forty six Sprague-Dawley male rats of similar age and weight were assigned into five treatment groups: hexamethylethane pellet implantation (Group H), adamantane pellet implantation (Group A), PLGA (Boehringer Ingelheim Resomer RG 504H) pellet implantation (Group P), a sham group for which surgery was performed without pellet implantation, and a control (no surgery) group. Pellets were individually weighed, and implanted into the neck scruff of rats. Explantation and reweighing of adamantane pellets was performed at 4 and 8 days, and 2, 4, 8, and 10 weeks; hexamethylethane pellets were explanted and weighed at 4 and 24 hours, and 4, 8, and 14 days.

| in-vivo sublimation / disappearance period of pellets | Compound |
| --- | --- |
| over a period of at least two months | C1C2CC3CC1CC(C2)C3 [adamantane] |
| over a period as short as one week | CC(C)(C)C(C)(C)C [hexamethylethane, 2,2,3,3-Tetramethylbutane] |
